Values joined by “and” are separate entries in the source; they are usually repeats but may differ in a detail not shown here. Equal values may be shown once.
Experiments:
[1] = molecular target: Syk kinase (Homo sapiens, UniProt P43405); conditions: as described in WO2008/033798; cited from earlier work
[2] = system: glomerulonephritis induced by a 30 microgram intravenous injection of clone a84 (IgG2a); assay: a84 antibody-induced glomerulonephritis animal model, urinary protein levels; assay type: in vivo, Rat, WKY; conditions: for % Inhibition of Total Urinary Protein Levels (mg), individual animal / % Inhibition of Total Urinary Protein Levels (mg), Mean: 30 ug a84 antibody iv; for % Inhibition of Total Urinary Protein Levels (mg), Mean: urine day 6-7 (16 h), male WKY rats, group mean
From the text: Study Objective: Glomerulonephritis is a complex disease involving cytokines, cell infiltration, cell proliferation, and rapid deterioration of renal function. This animal model will provide a relatively short term and quantitative measurement of glomerulonephritis. This study was designed to determine if a compound of Formula I will reduce glomerulonephritis induced by a 30 microgram intravenous injection of clone a84 (IgG2a). This monoclonal antibody induces disease by binding to a glomerular basement membrane protein. Disease progression is monitored in two ways in this model. First, the levels of protein in excreted urine are assessed. This readout serves as a rapid marker of renal diseased. The second mechanism by which disease is monitored is by examining the substructure of the kidney via histological examination.
Aim of Study: Glomerulonephritis is a complex disease involving cytokines, cell infiltration, cell proliferation, and rapid deterioration of renal function. This animal model provided a relatively short term and quantitative measurement of glomerulonephritis. This study was designed to determine if the compound of Formula I as hydrochloride salt will reduce glomerulonephritis induced by a 30 microgram intravenous injection of clone a84 (IgG2a).
Species, Strain, Supplier: Rat, WKY, Charles River
Duration and Frequency of Treatment: Animals in groups B through F and H through L received a 30 ug iv injection of a84 antibody on day 0 approximately 1 hour post dose.
Route of Administration: Oral gavage
Duration and Frequency of Treatment: Each animal in groups C, D, and E received an A.M. and P.M. dose approximately 8 hours apart from day 0 through day 6. Each animal in groups I, J, and K received an A.M. and P.M. dose approximately 8 hours apart from day 0 through day 3. Dosing was initiated on day 0 approximately 1 hour prior to a84 antibody injection.
Route of Administration: intraperitoneal (ip)
Duration and Frequency of Treatment: Each animal in groups F and L received an A.M. dose on day 0 approximately 1 hour prior to a84 antibody injection and a PM dose on day 3.
Kit: Rat Urinary Protein Assay Kit
Study Parameters Rat urinary proteins was measured over approximately a 16 hour period from day 6 to day 7. The kidneys were harvested for histological evaluation and for possible mRNA isolation.
Evaluation Method: Rat urinary protein levels was determined by the kit described in section 2.3.
Chronology of Examinations and/or Sampling: 1) Rats were placed into six groups of eight, six groups of 4, and one group of 3 based on compound and dose administered: Group A Vehicle (0.5% methyl cellulose containing 0.2% tween 80)+IV saline injection n=8, Group B Vehicle (0.5% methyl cellulose containing 0.2% tween 80)+IV a84 antibody injection n=8, Group C Compound of Formula I as hydrochloride salt 3.0 mg/kg+IV a84 antibody injection n=8, Group D SAR397769A 10 mg/kg+IV a84 antibody injection n=8, Group E Compound of Formula I as hydrochloride salt 30 mg/kg+IV a84 antibody injection n=8, Group F Enbrel 5.0 mg/kg+IV a84 antibody injection, Group G Vehicle (0.5% methyl cellulose containing 0.2% tween 80)+IV saline injection n=4, Group H Vehicle (0.5% methyl cellulose containing 0.2% tween 80)+IV a84 antibody injection n=4, Group I Compound of Formula I as hydrochloride salt 3.0 mg/kg+IV a84 antibody injection n=4, Group J SAR397769A 10 mg/kg+IV a84 antibody injection n=4, Group K Compound of Formula I as hydrochloride salt 30 mg/kg+IV a84 antibody injection n=4, Group L Enbrel 5.0 mg/kg+IV a84 antibody injection n=4, and Group M Naïve n=3. 2) On day 0, rats were dosed one hour prior to a84 antibody injection. Animals in groups A through E, and G through K were dosed orally. Dosing continued twice daily in groups A through E from day 0 to day 6 with approximately 8 hours between doses. Dosing continued twice daily in groups G through K from day 0 to day 3 with approximately 8 hours between doses. […]

| Compound | Syk kinase inhibition [1] | % Inhibition of Total Urinary Protein Levels (mg), individual animal ([2]; 3.0 mg/kg oral gavage twice daily day 0-6, single animals 1-8) | % Inhibition of Total Urinary Protein Levels (mg), Mean ([2]; 3.0 mg/kg oral gavage twice daily day 0-6) [%] | % Inhibition of Total Urinary Protein Levels (mg), Mean ([2]; 3.0 mg/kg oral gavage twice daily day 0-6, listed as compound of Formula I) [%] | % Inhibition of Total Urinary Protein Levels (mg), individual animal ([2]; 10 mg/kg oral gavage twice daily day 0-6, single animals 1-8) | % Inhibition of Total Urinary Protein Levels (mg), Mean ([2]; 10 mg/kg oral gavage twice daily day 0-6) [%] | % Inhibition of Total Urinary Protein Levels (mg), Mean ([2]; 10 mg/kg oral gavage twice daily day 0-6, listed as compound of Formula I) [%] | % Inhibition of Total Urinary Protein Levels (mg), individual animal ([2]; 30 mg/kg oral gavage twice daily day 0-6, single animals 1-8) | % Inhibition of Total Urinary Protein Levels (mg), Mean ([2]; 30 mg/kg oral gavage twice daily day 0-6) [%] | % Inhibition of Total Urinary Protein Levels (mg), Mean ([2]; 30 mg/kg oral gavage twice daily day 0-6, listed as compound of Formula I) [%] | reduction of urinary protein levels compared with positive control (Enbrel) ([2]; 30 mg/kg versus Enbrel 5.0 mg/kg) | % Inhibition of Total Urinary Protein Levels (mg), individual animal ([2]; 5.0 mg/kg ip on day 0 and day 3, single animals 1-7) | % Inhibition of Total Urinary Protein Levels (mg), Mean ([2]; 5.0 mg/kg ip on day 0 and day 3) [%] |
| --- | --- | --- | --- | --- | --- | --- | --- | --- | --- | --- | --- | --- | --- |
| CCc1c(-c2ccc(C(C)(C)O)cc2)[nH]c2nccnc12 [Exp Cmpd, 2-[4-(7-Ethyl-5H-pyrrolo [2,3-b]pyrazin-6-yl)-phenyl]-propan-2-ol] | Syk kinase inhibitor | −0.60% and 9.50% and −5.97% and 54.11% and 43.80% and 42.33% and 65.58% and −3.63% | 25.64 | 25 | 46.17% and 64.93% and 71.77% and 76.96% and 81.22% and 43.56% and 35.61% and 11.63% | 53.98 | 53 | 84.66% and 85.65% and 79.73% and 86.92% and 88.28% and 84.82% and 81.26% and 92.32% | 85.46 | 85 | significantly better than the positive control |  |  |
| Enbrel [reference compound] |  |  |  |  |  |  |  |  |  |  |  | 50.26% and 33.67% and 61.10% and 46.54% and 58.91% and 63.92% and 22.67% | 48.15 |
